Experimental data published in US20150328377A1, “COMPOSITION OF D-ALPHA HYDROXY ACIDS AND ANTIMICROBIALS” (BACTERIN INTERNATIONAL, INC., priority 2012, published 2015).
“And” between values parts separate entries of the source, which are not always exact repeats. Equal values may be shown once.

System: S. aureus
Assay: microplate biofilm formation assay (crystal violet)
Format: cell-based
Parameters: key to Relative Biofilm Score: crystal violet conc. / non-treated control conc. (1 = control)
Protocol: The synergy between a D-alpha hydroxy acid and an antimicrobial agent was determined through a standard microplate biofilm formation assay (Antimicrob Agents Chemother. 2009, 53, 4159-4166—which is incorporated in its entirety by reference). […] Before incubation each well received about 0, about 2, about 20, or about 200 μg/mL L- or D-lactic acids and about 0.0 or about 0.5 μg/mL chlorhexidine (CHX). The plates were incubated for approximately 20 hours at about 37° C. and then the supernatant of the wells was removed. Each well was gently washed 3 times with phosphate buffered saline, and the biofilm was fixed by incubating the plates at about 60° C. for about 1 hour. The biofilm was then stained by incubating at about 37° C. in about 100 μL about 0.5% crystal violet for about 20 minutes. The plates were then thoroughly rinsed with tap water to remove any excess crystal violet and dried. The residual crystal violet was then extracted with about 200 μL of about 33% acetic acid. About 150 μL of the about 33% acetic acid extractant was then diluted with about 2000 μL acetonitrile and the quantity of crystal violet was determined by measuring the absorbance of the resulting solution at about 590 nanometers. The concentration of crystal violet is directly proportional to the amount of biofilm formation in each well. Each set of concentrations was measured at least four times. The average crystal violet concentration was divided by the average crystal violet concentration for a non-treated control (about 0.0 μg/mL CHX and about 0.0 μg/mL lactic acid) to obtain a relative biofilm formation score. In the same manner as Example 1, the synergy between a D-alpha hydroxy acid and the combination of rifampin and minocycline was determined. […] Before incubation each well received about 0 μg/mL or about 200 μg/mL of L- or D-lactic acid and about 0 ng/mL or about 5 ng/mL each of rifampin and minocycline. The plates were incubated for about 20 hours at about 37° C. and then the supernatant of the wells was removed. The quantity of biofilm formation in each well was determined using the protocol detailed in Example 1.

[1] = 2 μg/mL lactic acid combined with 0.5 μg/mL CHX
[2] = 2 μg/mL lactic acid, 0.0 μg/mL CHX
[3] = 20 μg/mL lactic acid combined with 0.5 μg/mL CHX
[4] = 20 μg/mL lactic acid, 0.0 μg/mL CHX
[5] = 200 μg/mL lactic acid combined with 5.0 ng/mL Rif/Min, Table 2
[6] = 200 μg/mL lactic acid combined with 0.5 μg/mL CHX
[7] = 200 μg/mL lactic acid, 0.0 μg/mL CHX
[8] = 200 μg/mL lactic acid, 0.0 ng/mL Rif/Min, Table 2

Row | SMILES | Relative Biofilm Score [1] | Relative Biofilm Score [2] | Relative Biofilm Score [3] | Relative Biofilm Score [4] | Relative Biofilm Score [5] | Relative Biofilm Score [6] | Relative Biofilm Score [7] | Relative Biofilm Score [8] | effect on biofilm formation (combined with chlorhexidine, not by itself) | effect on biofilm formation (combined with rifampin and minocycline, not by itself) | effect on biofilm formation (alone or in combination with chlorhexidine at any concentration) | effect on biofilm formation (by itself or combined with rifampin and minocycline) | Relative Biofilm Score (0.5 μg/mL CHX alone (0 μg/mL lactic acid), relative to non-treated control, values approximate)
1 | C[C@@H](O)C(=O)O [D-Lactic Acid, D-lactic acid] | 0.19 ± 0.03 | 1.07 ± 0.24 | 0.12 ± 0.03 | 1.11 ± 0.17 | 0.27 ± 0.04 | 0.04 ± 0.01 | 1.10 ± 0.20 | 0.92 ± 0.24 | statistically significant dose dependent decrease in biofilm formation | statistically significant decrease in biofilm formation | – | – | –
2 | C[C@H](O)C(=O)O [L-Lactic Acid, L-lactic acid] | 0.23 ± 0.05 | 1.01 ± 0.20 | 0.33 ± 0.08 | 1.06 ± 0.18 | 0.43 ± 0.03 | 0.27 ± 0.07 | 1.16 ± 0.18 | 1.04 ± 0.15 | – | – | did not show any statistically significant effects on biofilm formation | did not show any reduction in biofilm formation | –
3 | [H]/N=C(\N/C(=N/[H])NCCCCCCNC(=N)NC(=N)Nc1ccc(Cl)cc1)Nc1ccc(Cl)cc1 [CHX, chlorhexidine] | – | – | – | – | – | – | – | – | – | – | – | – | 0.26 ± 0.04 and 0.26 ± 0.05
